Legend:
[1] = target: Na,K-ATPase α1β1 isoform complex (Homo sapiens, UniProt P05023); experiment: biochemical; conditions: Ki ± S.E. α1, Table 2; α1β1
Method: Methods for transformation, culture of P. pastoris clones, protein expression of Na,K-ATPase human isoforms (α1β1, α2β1, α3β1), membrane preparation, solubilization of membranes in DDM, and purification on BD-Talon beads have been described in detail (6-9, 11, 25). In initial experiments the three purified isoform complexes (0.3-0.5 mg/ml) were eluted from the BD-Talon beads in a solution containing Imidazole 170 mM, NaCl 100 mM; Tricine.HCl 20 mM pH 7.4; C12E8, 0.1 mg/ml; SOPS 0.07 mg/ml cholesterol 0.01 mg/ml, glycerol 25%. In later experiments the isoforms complexes were reconstituted with purified FXYD1 on the BD-Talon beads together as described in detail in (10, 11) prior to elution of α1β1FXYD1, α2β1FXYD1 and α3β1FXYD1 complexes. The proteins were stored at −80° C. Protein concentration was determined with BCA (B9643 Sigma).
Inhibition of Na,K-ATPase activity of the detergent-soluble α1β1, α2β1, and α3β1 complexes by CG's was determined as described (6) using either the αβ or αβFXYD1 complexes. […] The K0.5K was estimated by varying K concentration in a medium containing a fixed total K+choline chloride of 60 mM, and constant NaCl of 140 mM. Curves were fitted to the Hill function v=Vmax*[S]^n/([S]^n+K^n), where S is the K concentration, n is the Hill coefficient and K^n is K0.5K. For comparison of different curves the ratio v/Vmax for each curve was calculated and replotted. In experiments to assess inhibition of Na,K-ATPase activity by cardiac glycosides of the present invention, the percent inhibition VCG/V0 was calculated and Ki values were obtained by fitting the data to the function VCG/V0=Ki/([CG]+Ki)+ c. Inhibition was estimated in 3-8 separate experiments and average Ki values ±SEM were calculated. Significance of differences between Kiα1 and Kiα2 was calculated by the unpaired Student's t-test (p values). […] P values <0.05 were considered significant.

[2] = test system: intra-ocular pressure (IOP) of rabbits; experiment: IB-MECA-induced ocular hypertension in rabbits; format: in vivo, New Zealand white rabbits; conditions: 1 mM applied after IB-MECA
Method: IB-MECA induces acute ocular hypertension by a different and well-defined mechanism. Namely, IB-MECA is a selective agonist of the A3-adenosine receptor, and rises aqueous humour inflow and IOP by activating Cl channels of the NPE cells (18, 19). […] FIG. 8A depicts the effects of DMe (0.1-1 mM) applied prior to the IB-MECA, and a similar result was obtained for DGlyN (not shown). FIG. 8B depicts effects of digoxigenin, DGlyN and DMe (1 mM) applied after the IB-MECA.
New Zealand white rabbits (3-3.5 kg) about 1 year old, of either sex, were housed individually in separate cages in animal room conditions on a reversed, 12-hour dark/light cycle. For the experiments the animals were transferred to rabbit restrainers in a quiet and calm atmosphere (FIG. 1). […] Animal care and treatment were subject to the approval of the institutional committee for animal experiments, Weizmann Institute IACUC permission (no 04270911-2).
IOP (mm Hg) of rabbits was measured using a calibrated Pneumatonometer (Model 30, Reichert technologies, FIG. 1). A local anesthetic Oxybuprocaine HCl (0.4%, 25 μl) was applied to each cornea about a minute before IOP measurements. Two baseline IOP readings were taken before topical administration of the CG (or PBS as control) and after half an hour (Zero time). […] At zero time one drop of 4AP (40 mg/ml, 30 μl) or IB-MECA (1 μM, 30 μl) was administered to both eyes of each rabbit IOP measurements were made at different times as indicated in each experiment. In the experiments for which the IOP was elevated for several hours, 4AP was added every […] or IB-MECA every 2 hours. […] In all cases the figures depict the average effect on IOP (i.e for four or six eyes) compared to control ±SEM. […] Significance of differences from the control was calculated by the unpaired Students t-test (p values), p values <0.05 were considered significant. Corneal thickness (μm) was measured using an ultrasonic pachymeter (Sonogage pachometer, Cleveland, USA), before and during the experiment with CG and 4AP treatments. The values represent averages of three independent measurements for each eye.

[3] = test system: purified α2β1FXYD1 complexes of Na,K-ATPase; experiment: Dissociation of cardiac glycosides from the α2β1 isoform complex; conditions: α2β1 isoform complex, 37° C.
Method: Since the principal isoform in NPE cells is α2 and dissociation from the pump is expected to affect the duration of the effects on IOP, the dissociation rates of different cardiac glycosides from the purified α2β1 isoform were compared.
Purified α2β1FXYD1 complexes (0.3-0.5 mg/ml) were incubated for 30 minutes at 37° C. in a medium containing ATP, 1 mM; NaCl 100 mM; MgCl2, 4 mM Histidine.HCl 25 mM pH 7.4 without (Control) or with 1 μM of different cardiac glycosides. The enzyme solutions were then diluted 100-fold into a medium containing 100 mM NaCl, 5 mM KCl, 1 mM EDTA (Tris), 0.005 mg/ml C12E8, 0.01 mg/ml SOPS, and 0.001 mg/ml cholesterol and incubated at 37° C. for different lengths of time. Aliquots were removed at different times and Na,K-ATPase activity was measured in triplicate over 0.5 minutes (digoxigenin) or 2 minutes (other cardiac glycosides) in the standard activity medium containing 200 μM ATP. The activity of test samples was divided by the activity of the control samples and the time-course for reversal of inhibition was analyzed by fitting the data to the function vt=v∞e^−kt+c. Normalized curves for comparison of different experiments (e.g. as in FIG. 9) were obtained by subtracting the constant value c from each value of the activity and re-fitting the ratio vt/v∞=1−e^−kt.

Compound	Ki [1] [nM]	Duration of the effect compared with digoxigenin [2]	Effect on IB-MECA-induced ocular hypertension [2]	k ± SEM (rate of dissociation) [3]
CC1CN(CC(N)=O)CCC(OC2C(O)CC(OC3C(O)CC(OC4CCC5(C)C(CCC6C5CC(O)C5(C)C(C7=CC(=O)OC7)CCC65O)C4)OC3C)OC2C)O1 (centres unmarked) [DGlyN]	152 ± 5.5	significantly greater	almost the same as seen with 4AP	0.009 ± 0.001, 3 min^−1
CC1CN(C)CCC(OC2C(O)CC(OC3C(O)CC(OC4CCC5(C)C(CCC6C5CC(O)C5(C)C(C7=CC(=O)OC7)CCC65O)C4)OC3C)OC2C)O1 (centres unmarked) [DMe]	101 ± 4.4	significantly greater	almost the same as seen with 4AP	0.0067 ± 0.004, 3 min^−1

From patent publication US9938316B2, “Selective inhibitors of α2 isoform of Na,K-ATPase and use thereof for reduction of intra-ocular pressure and as cardiotonic agents” (priority 2013, dated 2018)
